Results reported in ChEMBL document CHEMBL1201862, “PubChem BioAssay data set” (2004).
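Each compound was tested at five concentrations against cells in 96-well plates for 48 hours. At the GI50, growth is halved.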 Activity calls are given as the source filed them. Rule as the data show it: active = GI50 up to about 1.1 µM and inactive = higher.

How the values were obtained:
Experiment in all cases: growth of human tumour cells (NCI), 48 h
ACHN = system: ACHN
CAKI-1 = system: CAKI-1
COLO 205 = system: COLO 205
EKVX = system: EKVX
HOP-62 = system: HOP-62
K562 = system: K562
Malme-3M = system: Malme-3M
NCI-H460 = system: NCI-H460
NCI-H522 = system: NCI-H522
OVCAR-4 = system: OVCAR-4
SK-MEL-28 = system: SK-MEL-28
SK-MEL-2 = system: SK-MEL-2
SK-OV-3 = system: SK-OV-3
SN12C = system: SN12C
SNB-75 = system: SNB-75
SR = system: SR
U-251 = system: U-251
RXF 393 = system: RXF 393

SMILES | GI50 (ACHN) | GI50 (CAKI-1) | GI50 (COLO 205) | GI50 (EKVX) | GI50 (HOP-62) | GI50 (K562) | GI50 (Malme-3M) | GI50 (NCI-H460) | GI50 (NCI-H522) | GI50 (OVCAR-4) | GI50 (SK-MEL-28) | GI50 (SK-MEL-2) | GI50 (SK-OV-3) | GI50 (SN12C) | GI50 (SNB-75) | GI50 (SR) | GI50 (U-251) | GI50 (RXF 393)
Cc1cccc2c1N(C(=O)/C=C\C(=O)O)C(c1c(C)[nH]c3ccccc13)C2 (stereo not given) | 84.3 µM (inactive) | 30.3 µM (inactive) | > 10 µM (inactive) | > 100 µM (inactive) | > 100 µM (inactive) | 36.6 µM (inactive) | 20.1 µM (inactive) | > 100 µM (inactive) | 18.5 µM (inactive) | 57.7 µM (inactive) | 21.9 µM (inactive) | 19.9 µM (inactive) | 30.8 µM (inactive) | 40.7 µM (inactive) | > 10 µM (inactive) | 31 µM (inactive) | > 10 µM (inactive) | –
COc1cc(Nc2cnc3ccc(C(F)(F)F)cc3n2)cc(OC)c1OC | 9.95 µM (inactive) | – | 6.18 µM (inactive) | > 100 µM (inactive) | 23.9 µM (inactive) | – | > 100 µM (inactive) | 12.9 µM (inactive) | – | – | > 100 µM (inactive) | 24.7 µM (inactive) | – | > 100 µM (inactive) | – | > 100 µM (inactive) | > 100 µM (inactive) | 68.4 µM (inactive)
COC(=O)CSc1nnc(-c2ccc(O)c([N+](=O)[O-])c2)[nH]1 | > 100 µM (inactive) | > 100 µM (inactive) | – | > 100 µM (inactive) | – | > 100 µM (inactive) | > 100 µM (inactive) | > 100 µM (inactive) | – | > 100 µM (inactive) | > 100 µM (inactive) | > 100 µM (inactive) | – | > 100 µM (inactive) | > 100 µM (inactive) | > 100 µM (inactive) | > 100 µM (inactive) | > 100 µM (inactive)
CNS(=O)(=O)NNS(=O)(=O)c1ccc(Br)cc1 | > 100 µM (inactive) | > 100 µM (inactive) | > 100 µM (inactive) | > 100 µM (inactive) | > 100 µM (inactive) | > 100 µM (inactive) | > 100 µM (inactive) | 42.7 µM (inactive) | > 100 µM (inactive) | > 100 µM (inactive) | > 100 µM (inactive) | > 100 µM (inactive) | > 100 µM (inactive) | – | 47 µM (inactive) | – | 28.3 µM (inactive) | > 100 µM (inactive)
CC1CCSC(N(C(=O)N(C)c2ccccc2)c2ccccc2)=N1 (stereo not given) | > 100 µM (inactive) | > 100 µM (inactive) | > 100 µM (inactive) | > 100 µM (inactive) | > 100 µM (inactive) | > 100 µM (inactive) | > 100 µM (inactive) | > 100 µM (inactive) | > 100 µM (inactive) | – | > 100 µM (inactive) | > 100 µM (inactive) | > 100 µM (inactive) | > 100 µM (inactive) | > 100 µM (inactive) | – | > 100 µM (inactive) | > 100 µM (inactive)
O=C1CC2CCN(C(=O)c3ccccc3)CC2CCN1 (stereo not given) | > 100 µM (inactive) | – | > 100 µM (inactive) | > 100 µM (inactive) | > 100 µM (inactive) | > 100 µM (inactive) | > 100 µM (inactive) | > 100 µM (inactive) | – | > 100 µM (inactive) | > 100 µM (inactive) | 0.578 µM (active) | > 100 µM (inactive) | > 100 µM (inactive) | > 100 µM (inactive) | > 100 µM (inactive) | > 100 µM (inactive) | > 100 µM (inactive)
O=C(NC12CC3CCC1CC(C3)C2)[C@@H]1CCCN1C(=O)OCc1ccccc1 (stereo not given in full) | 44 µM (inactive) | – | 33.5 µM (inactive) | 69.5 µM (inactive) | > 100 µM (inactive) | 33.7 µM (inactive) | 37.5 µM (inactive) | – | 54.7 µM (inactive) | – | 31.1 µM (inactive) | 40.6 µM (inactive) | 65.3 µM (inactive) | 46.5 µM (inactive) | 26.7 µM (inactive) | 34.4 µM (inactive) | 42.4 µM (inactive) | 16.8 µM (inactive)
NC(=O)NC1C(C(=O)O)N(Cc2ccccc2)C(=O)N1Cc1ccccc1 (stereo not given) | > 100 µM (inactive) | > 100 µM (inactive) | > 100 µM (inactive) | > 100 µM (inactive) | > 100 µM (inactive) | > 100 µM (inactive) | > 100 µM (inactive) | > 100 µM (inactive) | > 100 µM (inactive) | > 100 µM (inactive) | > 100 µM (inactive) | > 100 µM (inactive) | > 100 µM (inactive) | – | > 100 µM (inactive) | > 100 µM (inactive) | > 100 µM (inactive) | –
CSc1nc(NC2OC(COC(C)=O)C(OC(C)=O)C(OC(C)=O)C2OC(C)=O)c(-c2csc(N)n2)c(=O)n1C (stereo not given) | 31.5 µM (inactive) | 31.3 µM (inactive) | > 100 µM (inactive) | – | 24.2 µM (inactive) | > 100 µM (inactive) | 28.9 µM (inactive) | 39.1 µM (inactive) | 56.2 µM (inactive) | 21.8 µM (inactive) | 37.7 µM (inactive) | 28.6 µM (inactive) | 50.7 µM (inactive) | 49.5 µM (inactive) | 18 µM (inactive) | > 100 µM (inactive) | 34.3 µM (inactive) | –
COC(=O)C(=O)C(C#N)c1cccc2ccccc12 (stereo not given) | > 100 µM (inactive) | > 100 µM (inactive) | > 100 µM (inactive) | > 100 µM (inactive) | > 100 µM (inactive) | > 100 µM (inactive) | > 100 µM (inactive) | – | > 100 µM (inactive) | > 100 µM (inactive) | > 100 µM (inactive) | – | > 100 µM (inactive) | > 100 µM (inactive) | 97.3 µM (inactive) | > 100 µM (inactive) | > 100 µM (inactive) | –
CC(=O)NC(Cc1ccccc1)C(=S)N1CCCC1 (stereo not given) | > 100 µM (inactive) | > 100 µM (inactive) | > 100 µM (inactive) | > 100 µM (inactive) | > 100 µM (inactive) | > 100 µM (inactive) | > 100 µM (inactive) | > 100 µM (inactive) | > 100 µM (inactive) | > 100 µM (inactive) | > 100 µM (inactive) | > 100 µM (inactive) | > 100 µM (inactive) | > 100 µM (inactive) | 55.3 µM (inactive) | – | > 100 µM (inactive) | > 100 µM (inactive)
O=C(c1ccccn1)c1nc(-c2ccc(Cl)c(Cl)c2)nc2ccc(Cl)cc12 | 44.3 µM (inactive) | 56.6 µM (inactive) | – | 74.5 µM (inactive) | 21.3 µM (inactive) | 92 µM (inactive) | 32.3 µM (inactive) | 50.4 µM (inactive) | – | 40.2 µM (inactive) | > 100 µM (inactive) | 34.3 µM (inactive) | 36.4 µM (inactive) | – | 12.3 µM (inactive) | – | 44.1 µM (inactive) | 18.7 µM (inactive)
O=C1C=CC2(O)OCC3C=C4O[C@@H]5OC6(CCCCC6)O[C@@H]5C4[C@@H]2[C@@H]13 (stereo not given in full) | 26.1 µM (inactive) | 22.7 µM (inactive) | 15.3 µM (inactive) | 38.3 µM (inactive) | > 100 µM (inactive) | 14.5 µM (inactive) | 30.3 µM (inactive) | > 100 µM (inactive) | 11.3 µM (inactive) | 22.6 µM (inactive) | 20 µM (inactive) | 82 µM (inactive) | > 100 µM (inactive) | 48 µM (inactive) | 35.6 µM (inactive) | – | > 100 µM (inactive) | –
